Patent US8026235B1, “Pyridyl benzoxazine derivatives, pharmaceutical composition comprising the same, and use thereof” (Daewoong Pharmaceutical Co., Ltd., priority 2010, dated 2011)
Like-named read-outs stand apart in the source and are kept apart here.

Columns and labels:
[1] = tested on: SD rats (Sprague-Dawley rats); experiment: Assay for body temperature change (rectal temperature) in SD rats; assay type: in vivo; conditions: single oral administration, rectal temperature up to 8 hr
Description: With the knowledge that some TRPV1 antagonists show the side effect of increasing the body temperature (Gavva et al., 2008, Pain, 136, 202-210), changes in body temperature associated with the compounds prepared in the Examples of the present invention were assessed.
7-week-old SD rats (Sprague-Dawley rats) were employed for this evaluation. Each of the compounds of the Examples was orally administered once at a dose of 10 ml/kg by compulsion. Before administration, the compounds were suspended, together with the excipient Na-CMC (sodium carboxymethyl cellulose), in saline 10 mL. Rectal temperatures of the rats were measured 1 hr and immediately (0 hr) prior to administration, and at the 30 min, 1 hr, 2 hr, 4 hr, 6 hr and 8 hr marks after administration using a thermometer (Shibaura Electronic Corporation, TD-300). The data were expressed as mean values ±S.E.M. Statistical data was analyzed by one way ANOVA, and statistical significance was analyzed in comparison with the excipient-treated control using Dunnett's t-test. Meanwhile, N-(4-(6-(4-(trifluoromethyl)phenyl)[…])benzo[d]thiazol-2-yl)acetamide (hereinafter referred to as “AMG-517”) was used at a dose of 3 mg/kg, as a positive control.

[2] = biological target: T1, human vanilloid-1 (TRPV1) (Homo sapiens, UniProt Q8NER1); experiment: Inhibitory effect on capsaicin-stimulated calcium influx via a vanilloid receptor in hVR-1-HEK293 cells (Fluo-3/AM); assay type: cell-based; conditions: 1 μM capsaicin
T1 construct: expressed in transfected cells; host or cells: HEK293 Tet-on (hVR-1-HEK293), expression induced with doxycycline
T1 sequence (Q8NER1 whole entry): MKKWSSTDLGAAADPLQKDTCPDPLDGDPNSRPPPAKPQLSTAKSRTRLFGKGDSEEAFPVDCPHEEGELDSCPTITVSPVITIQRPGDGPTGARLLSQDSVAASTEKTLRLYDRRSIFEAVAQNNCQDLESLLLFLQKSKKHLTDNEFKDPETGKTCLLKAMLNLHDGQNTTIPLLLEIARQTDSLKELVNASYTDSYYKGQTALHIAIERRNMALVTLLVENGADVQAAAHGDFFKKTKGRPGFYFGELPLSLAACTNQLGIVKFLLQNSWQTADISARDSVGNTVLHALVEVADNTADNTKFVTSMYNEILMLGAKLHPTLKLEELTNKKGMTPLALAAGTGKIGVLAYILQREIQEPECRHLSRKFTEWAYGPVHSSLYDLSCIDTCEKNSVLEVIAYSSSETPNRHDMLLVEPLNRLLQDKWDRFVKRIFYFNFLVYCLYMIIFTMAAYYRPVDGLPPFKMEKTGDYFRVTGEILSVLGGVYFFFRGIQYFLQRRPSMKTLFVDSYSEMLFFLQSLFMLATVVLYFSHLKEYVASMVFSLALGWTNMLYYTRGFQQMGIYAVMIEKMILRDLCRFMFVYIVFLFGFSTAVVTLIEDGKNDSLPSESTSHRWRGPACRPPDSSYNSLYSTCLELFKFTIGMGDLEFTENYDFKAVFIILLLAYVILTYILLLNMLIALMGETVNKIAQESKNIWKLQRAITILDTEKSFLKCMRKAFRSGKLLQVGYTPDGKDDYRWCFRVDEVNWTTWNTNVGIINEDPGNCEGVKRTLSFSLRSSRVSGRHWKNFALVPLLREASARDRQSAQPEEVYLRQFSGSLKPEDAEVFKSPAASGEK
From the text: In order to confirm the antagonistic activities of the inventive compounds, inhibitory effects of the compounds on calcium influx were examined as follows.
hVR-1-HEK293 cell line is a human embryonic kidney (HEK) cell 293 Tet-on strain transformed with a human vanilloid-1 gene (pTRE2hyg-hVR-1 7.8 kb). The cell line can modulate the expression of TRPV1, depending on whether doxycycline, a derivative of tetracycline, is present or not.
In order to elucidate the inhibitory effect on calcium influx, the expression of TRPV1 was induced by culturing hVR-1-HEK293 cell line in a medium containing doxycycline for 2 days.
Specifically, hVR-1-HEK293 cells were cultured in a T75 flask to about 80% confluency, separated from the flask by treating with trypsin solution, and then collected by centrifugation. The cells were suspended in a medium containing 1 μg/mL of doxycycline, and the resulting suspension was diluted to a concentration of 2˜4×10^5 cells/mL 100 μL of the cell suspension was placed in each well of a 96-well black plate. The cells were cultured in 5% CO2 incubator at 37° C. for 2 days, and used for the following procedure.
The compounds, prepared in the Examples 1 to 9 of the present invention, were dissolved in dimethyl sulfoxide (DMSO) to obtain compound samples.
The cells prepared in 1) above were cultured at 37° C. for 90 min in a solution containing Fluo-3/AM, a fluorescent dye, as a calcium indicator so that the fluorescent dye was permeated into the cells. Then the cells were washed three times with D-PBS (Dulbecco's phosphate buffered saline) containing 10 mM HEPES (4-(2-hydroxyethyl)-1-piperazine ethanesulfonic acid) to remove the residual fluorescent dye. 193 μL of D-PBS was added to each well, followed by addition of various concentrations (0.015˜2000 nM) of the compounds. In order to stimulate calcium influx through a vanilloid receptor, the cells were treated with 1 μM of capsaicin. The inhibitory effect of various concentrations (0.015˜2000 nM) of compounds on intracellular calcium influx was measured by using a fluorimeter. Equivalent amounts of (R)-1-(2-bromophenyl)-3-(1-(5-(trifluoromethyl)pyridin-2-yl)pyrrolidin-3-yl)urea (also, referred to SB-705498) was used as a control group. The obtained data were input to the Hill equation represented by the following formula I and the values were analyzed: Intracellular calcium influx=(florescent intensity of experimental group−florescent intensity of background)/(florescent intensity of positive control−florescent intensity of background)×100 [Formula 1]
The inhibitory activities were evaluated from the obtained intracellular calcium influx values according to the following criteria.

[3] = tested on: PBQ-induced writhing in ICR male mice; experiment: Phenyl-p-quinone (PBQ)-induced writhing experiment using mice (effect on pain); assay type: in vivo; conditions: oral, PBQ (0.02%) i.p. after 1 hour; for I.A. (inhibitory activity), % inhibition rate class: writhing counted for 10 min
Description: In order to evaluate the effect on pain of the compounds prepared in the Examples 1 to 9, behaviors such as twisting or writhing of body resulted from pain were verified by the phenyl-p-quinone (PBQ)-induced writhing experiment using mice.
5 week-old ICR male mice were used as experimental animals and PBQ (0.02%), as a chemical stimulator. The suspensions of 20 mg of the compounds of the present invention and an excipient such as Na-CMC (sodium carboxymethyl cellulose) in 10 mL of saline were used as test compounds. The test compounds were orally administered to the mice and after 1 hour, PBQ was intraperitoneally administrated in an amount of 10 mL per kg of body weight. The writhing number of each mouse was measured for 10 min starting from 5 min after the administration, and the analgesic effect was verified by counting the reduced number compared to the control group administered with only excipient and calculating the % inhibitory rate according to the following Formula 2. Also, equivalent amounts of SB-705498 were administered as a reference compound for the comparison of the effect on pain between SB-705498 and the compounds of the present invention. % inhibition rate=(writhing # of control group−writhing # of test group)/writhing # of control group×100 [Formula 2]
The inhibitory activity was evaluated from the obtained % inhibition rate, according to the following parameters.

[4] = compounds 0.015˜2000 nM, read-out: I.A. (inhibitory activity), IC50 class

Row | Compound | Change in Body Temp. [1] | IC50 [2, 4] [nM] | I.A. (inhibitory activity), % inhibition rate class [3] | IC50 ([2]; read-out: IC50 on calcium influx) [nM] | % inhibition rate of writhing [3] [%]
1 | COc1ccc(N2CCOc3c(-c4nc5ccc(C(C)(C)C)cc5[nH]4)cccc32)nc1 [Example 1, 8-(6-tert-Butyl-1H-benzo[d]imidazol-2-yl)-4-(5-methoxypyridin-2-yl)-3,4-dihydro-2H-benzo[b][1,4]oxazine] | +/− (±<0.5° C.) | 101 to 500 | ++ (20˜50%) |  | 
2 | COc1ccc(N2c3cccc(-c4nc5ccc(C(F)(F)F)cc5[nH]4)c3OC[C@@H]2CO)nc1 [Example 2, (S)-(4-(5-methoxypyridin-2-yl)-8-(6-(trifluoromethyl)-1H-benzo[d]imidazol-2-yl)-3,4-dihydro-2H-benzo[b][1,4]oxazin-3-yl)methanol] | + (0.5^~1.0° C.) | 20 to 100 | ++ (20˜50%) |  | 
3 | COc1ccc(N2c3cccc(-c4nc5cc(Cl)c(Cl)cc5[nH]4)c3OC[C@@H]2CO)nc1 [Example 3, (S)-(8-(5,6-dichloro-1H-benzo[d]imidazol-2-yl)-4-(5-methoxypyridin-2-yl)-3,4-dihydro-2H-benzo[B][1,4]oxazin-3-yl)methanol] | +/− (±<0.5° C.) | 20 to 100 | ++ (20˜50%) |  | 
4 | COc1ccc(N2c3cccc(-c4nc5ccc(OC(F)(F)F)cc5[nH]4)c3OC[C@@H]2CO)nc1 [Example 4, (S)-(4-(5-methoxypyridin-2-yl)-8-(6-(trifluoromethoxy)-1H-benzo[d]imidazol-2-yl)-3,4-dihydro-2H-benzo[b][1,4]oxazin-3-yl)methanol] | +/− (±<0.5° C.) | 20 to 100 | ++ (20˜50%) |  | 
5 | COc1ccc(N2c3cccc(-c4nc5c(Br)cc(OC(F)(F)F)cc5[nH]4)c3OC[C@@H]2CO)nc1 [Example 5, (S)-(8-(4-bromo-6-(trifluoromethoxy)-1H-benzo[d]imidazol-2-yl)-4-(5-methoxypyridin-2-yl)-3,4-dihydro-2H-benzo[B][1,4]oxazin-3-yl)methanol] | + (0.5^~1.0° C.) | < 20 | +++ (51-80%) |  | 
6 | COc1ccc(N2c3cccc(-c4nc5cc(F)c(Cl)cc5[nH]4)c3OC[C@@H]2CO)nc1 [Example 6, (S)-(8-(6-chloro-5-fluoro-1H-benzo[d]imidazol-2-yl)-4-(5-methoxypyridin-2-yl)-3,4-dihydro-2H-benzo[b][1,4]oxazin-3-yl)methanol] | +/− (±<0.5° C.) | 20 to 100 | +++ (51-80%) |  | 
7 | COc1ccc(N2c3cccc(-c4nc5c(Br)cc(C(F)(F)F)cc5[nH]4)c3OC[C@@H]2CO)nc1 [Example 7, (S)-(8-(4-bromo-6-(trifluoromethyl)-1H-benzo[d]imidazol-2-yl)-4-(5-methoxypyridin-2-yl)-3,4-dihydro-2H-benzo[b][1,4]oxazin-3-yl)methanol] | + (0.5^~1.0° C.) | 101 to 500 | ++ (20˜50%) |  | 
8 | COc1ccc(N2c3cccc(-c4nc5c(Cl)cc(C(F)(F)F)cc5[nH]4)c3OC[C@@H]2CO)nc1 [Example 8, (S)-(8-(4-chloro-6-(trifluoromethyl)-1H-benzo[d]imidazol-2-yl)-4-(5-methoxypyridin-2-yl)-3,4-dihydro-2H-benzo[b][1,4]oxazin-3-yl)methanol] | +/− (±<0.5° C.) | 20 to 100 | +++ (51-80%) |  | 
9 | COc1ccc(N2c3cccc(-c4nc5c(Br)cc(Br)cc5[nH]4)c3OC[C@@H]2CO)nc1 [Example 9, (S)-(8-(4,6-dibromo-1H-benzo[d]imidazol-2-yl)-4-(5-methoxypyridin-2-yl)-3,4-dihydro-2H-benzo[b][1,4]oxazin-3-yl)methanol] | + (0.5^~1.0° C.) | 101 to 500 | ++ (20˜50%) |  | 
10 | O=C(Nc1ccccc1Br)N[C@@H]1CCN(c2ccc(C(F)(F)F)cn2)C1 [SB-705498, (R)-1-(2-bromophenyl)-3-(1-(5-(trifluoromethyl)pyridin-2-yl)pyrrolidin-3-yl)urea, reference compound] |  |  |  | 100 to 150 | < 20
